For series [1], the system named is HBV (HepG2.117 cell line, inducibly HBV producing). The series is described as follows: Anti-HBV activity: intracellular HBV DNA by real-time PCR in HepG2.117 cells after 3 days of treatment. The format is cell-based, hepatitis B virus. The note with it: read-out: EC50 (μM, mean value). In short, it runs like this: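 Tet-off HepG2.117; HBV replication induced (no doxycycline); serial compound dilutions, 3 d; intracellular HBV DNA by real-time PCR, HBV-specific primers/probe.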
(Quantitative PCR measures a nucleic acid by following its amplification.)

Another series in a line: in vitro. The format is cell-based. The note with it: human, HepG2 or HepG2.117 cells, 3-days incubation (unmarked values), ATPlite; mean value. The procedure, abridged: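 Luminescent ATP quantitation served as the viability endpoint following a 3- or 4-day incubation with test compounds.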
Where [2] appears, read: Hepatitis B virus, HepG2.117, 72 h, HepG2.117 cells, 3 days of treatment, intracellular HBV DNA by real-time PCR, mean value.

Like-named read-outs stand apart in the source and are kept apart here.

What is called EC50 is the concentration at which the effect is half-maximal. As usually defined, the CC50 is the concentration that lowers cell viability or growth by half. A high value points to lower toxicity to the cells.

As to `Cc1ncccc1-n1c(NC(C)C)nc2c(c1=O)CCN(C(=O)c1ccc(Cl)c(Cl)c1)C2` [Compound C99, 7-(3,4-dichlorobenzoyl)-3-(2-methylpyridin-3-yl)-2-[(propan-2-yl)amino]-5,6,7,8-tetrahydropyrido[3,4-d]pyrimidin-4(3H)-one], the EC50 in series [1] (setting [2]) was determined as 2.05 µM. This compound also displayed a CC50 at 3 days in “in vitro” of 28.3 µM.
Consider `CC(C)Nc1nc2c(c(=O)n1-c1ccc(S(C)(=O)=O)cc1)CC(C)N(C(=O)c1ccc(Cl)c(Cl)c1)C2` (stereo not shown) [Compound C100, 7-(3,4-dichlorobenzoyl)-3-[4-(methanesulfonyl)phenyl]-6-methyl-2-[(propan-2-yl)amino]-5,6,7,8-tetrahydropyrido[3,4-d]pyrimidin-4(3H)-one], for which the EC50 in series [1] (setting [2]) amounted to 0.51 µM. Further, the CC50 at 3 days in the series “in vitro” was over 25 µM.
`CC(C)Nc1nc2c(c(=O)n1-c1ccc(S(C)(=O)=O)cc1)C[C@@H](C)N(C(=O)c1ccc(Cl)c(Cl)c1)C2` [Compound C100A, (6R)-7-(3,4-dichlorobenzoyl)-3-[4-(methanesulfonyl)phenyl]-6-methyl-2-[(propan-2-yl)amino]-5,6,7,8-tetrahydropyrido[3,4-d]pyrimidin-4(3H)-one]: in series [1] (HepG2.117 cells, 3 days of treatment, intracellular HBV DNA by real-time PCR, mean value), the EC50 stood at 0.27 µM. The compound also registered a CC50 at 3 days in “in vitro” of over 50 µM.
On to `CC(C)Nc1nc2c(c(=O)n1-c1ccc(S(C)(=O)=O)cc1)C[C@H](C)N(C(=O)c1ccc(Cl)c(Cl)c1)C2` [Compound C100B, (6S)-7-(3,4-dichlorobenzoyl)-3-[4-(methanesulfonyl)phenyl]-6-methyl-2-[(propan-2-yl)amino]-5,6,7,8-tetrahydropyrido[3,4-d]pyrimidin-4(3H)-one], for which the EC50 in series [1] (setting [2]) turned out to be 10.1 µM. This compound also returned a CC50 at 3 days in the series “in vitro” of over 50 µM.
In the case of `COc1ccc(CNc2nc3c(c(=O)n2-c2ccc(S(C)(=O)=O)nc2)CCN(C(=O)c2ccc(Cl)c(Cl)c2)C3)cc1` [Compound C102, 7-(3,4-dichlorobenzoyl)-3-[6-(methanesulfonyl)pyridin-3-yl]-2-{[(4-methoxyphenyl)methyl]amino}-5,6,7,8-tetrahydropyrido[3,4-d]pyrimidin-4(3H)-one], in series [1] (setting [2]), the EC50 was 0.39 µM. This compound registered a CC50 at 3 days in the series “in vitro” of over 50 µM.
In the case of `COc1ccc(CNc2nc3c(c(=O)[nH]2)CCN(C(=O)c2ccc(Cl)c(C#N)c2)C3)cc1` [Compound C103, 2-chloro-5-[2-{[(4-methoxyphenyl)methyl]amino}-4-oxo-4,5,6,8-tetrahydropyrido[3,4-d]pyrimidine-7(3H)-carbonyl]benzonitrile], in series [1] (setting [2]), the EC50 was 18.3 µM. Also, the CC50 at 3 days in the series “in vitro” was over 50 µM.
On the same counts, the results for `COc1ccc(CNc2nc3c(c(=O)[nH]2)CCN(C(=O)c2ccc(Br)c(C)c2)C3)cc1` [Compound C104, 7-(4-bromo-3-methylbenzoyl)-2-{[(4-methoxyphenyl)methyl]amino}-5,6,7,8-tetrahydropyrido[3,4-d]pyrimidin-4(3H)-one] are 1.8 µM and 24.1 µM.
As to `COc1ccc(CNc2nc3c(c(=O)[nH]2)CCN(C(=O)c2ccc(Br)c(C#N)c2)C3)cc1` [Compound C105, 2-bromo-5-[2-{[(4-methoxyphenyl)methyl]amino}-4-oxo-4,5,6,8-tetrahydropyrido[3,4-d]pyrimidine-7(3H)-carbonyl]benzonitrile], the EC50 in series [1] (setting [2]) is 6.81 µM. In “in vitro”, this compound displayed a CC50 at 3 days of over 50 µM.
As to `COc1ccc(CNc2nc3c(c(=O)[nH]2)CCN(C(=O)c2ccc(Cl)c(F)c2)C3)cc1` [Compound C106, 7-(4-chloro-3-fluorobenzoyl)-2-{[(4-methoxyphenyl)methyl]amino}-5,6,7,8-tetrahydropyrido[3,4-d]pyrimidin-4(3H)-one], the 50% effective concentration (EC50) in series [1] (setting [2]) came out at 21.1 µM. In the series “in vitro”, this compound showed a CC50 at 3 days of 27.1 µM.
As for `COc1ccc(CNc2nc3c(c(=O)n2-c2ccn[nH]2)CCN(C(=O)c2ccc(Cl)c(Cl)c2)C3)cc1` [Compound C107, 7-(3,4-dichlorobenzoyl)-2-{[(4-methoxyphenyl)methyl]amino}-3-(1H-pyrazol-5-yl)-5,6,7,8-tetrahydropyrido[3,4-d]pyrimidin-4(3H)-one], the EC50 in series [1] (setting [2]) turned out to be 1.78 µM. Further, the CC50 at 3 days in “in vitro” was found to be 22.6 µM.
Regarding `COc1ccc(CNc2nc3c(c(=O)n2-c2ccnn2C)CCN(C(=O)c2ccc(Cl)c(Cl)c2)C3)cc1` [Compound C108, 7-(3,4-dichlorobenzoyl)-2-{[(4-methoxyphenyl)methyl]amino}-3-(1-methyl-1H-pyrazol-5-yl)-5,6,7,8-tetrahydropyrido[3,4-d]pyrimidin-4(3H)-one], the EC50 in series [1] (setting [2]) came to 1.87 µM. For the same compound, in “in vitro”, the CC50 at 3 days amounted to 26.5 µM.
Regarding `COc1ccc(CNc2nc3c(c(=O)n2-c2ccc(S(C)(=O)=O)cc2)CC(c2ccc(F)cc2)N(C(=O)c2ccc(Cl)c(Cl)c2)C3)cc1` (stereo not shown) [Compound C109, 7-(3,4-dichlorobenzoyl)-6-(4-fluorophenyl)-3-[4-(methanesulfonyl)phenyl]-2-{[(4-methoxyphenyl)methyl]amino}-5,6,7,8-tetrahydropyrido[3,4-d]pyrimidin-4(3H)-one], in series [1] (Hepatitis B virus, HepG2.117, 72 h), the EC50 came to 2.11 µM. This compound also showed a CC50 at 3 days in “in vitro” of over 50 µM.
Turning to `CC(C)Nc1nc2c(c(=O)n1-c1ccc(S(C)(=O)=O)cc1)CC(c1ccc(F)cc1)N(C(=O)c1ccc(Cl)c(Cl)c1)C2` (stereo not shown) [Compound C110, 7-(3,4-dichlorobenzoyl)-6-(4-fluorophenyl)-3-[4-(methanesulfonyl)phenyl]-2-[(propan-2-yl)amino]-5,6,7,8-tetrahydropyrido[3,4-d]pyrimidin-4(3H)-one], in series [1] (setting [2]), the EC50 was over 50 µM. The compound also registered a CC50 at 3 days in “in vitro” of over 50 µM.
Turning to `COc1ccc(CNc2nc3c(c(=O)n2CCNS(C)(=O)=O)CCN(C(=O)c2ccc(Cl)c(Cl)c2)C3)cc1` [Compound C111, N-{2-[7-(3,4-dichlorobenzoyl)-2-{[(4-methoxyphenyl)methyl]amino}-4-oxo-5,6,7,8-tetrahydropyrido[3,4-d]pyrimidin-3(4H)-yl]ethyl}methanesulfonamide], the EC50 in series [1] (setting [2]) was found to be 7.64 µM. The compound also had a CC50 at 3 days in “in vitro” of over 50 µM.
On to `CC(C)Nc1nc2c(c(=O)n1CCNS(C)(=O)=O)CCN(C(=O)c1ccc(Cl)c(Cl)c1)C2` [Compound C112, N-{2-[7-(3,4-dichlorobenzoyl)-4-oxo-2-[(propan-2-yl)amino]-5,6,7,8-tetrahydropyrido[3,4-d]pyrimidin-3(4H)-yl]ethyl}methanesulfonamide], for which the EC50 in series [1] (setting [2]) worked out at 11.5 µM. In “in vitro”, this compound registered a CC50 at 3 days of over 50 µM.
For the compound `COc1ccc(CNc2nc3c(c(=O)n2-c2cnccc2C)CCN(C(=O)c2ccc(Cl)c(Cl)c2)C3)cc1` [Compound C113, 7-(3,4-dichlorobenzoyl)-2-{[(4-methoxyphenyl)methyl]amino}-3-(4-methylpyridin-3-yl)-5,6,7,8-tetrahydropyrido[3,4-d]pyrimidin-4(3H)-one], the EC50 in series [1] (setting [2]) was determined as 0.65 µM. Moreover, the CC50 at 3 days in the series “in vitro” was 19.4 µM.
The like results for `Cc1ccncc1-n1c(NC(C)C)nc2c(c1=O)CCN(C(=O)c1ccc(Cl)c(Cl)c1)C2` [Compound C114, 7-(3,4-dichlorobenzoyl)-3-(4-methylpyridin-3-yl)-2-[(propan-2-yl)amino]-5,6,7,8-tetrahydropyrido[3,4-d]pyrimidin-4(3H)-one] were, in that order, 1.78 µM and over 50 µM.
On the same counts, the results for `COc1ccc(CNc2nc3c(c(=O)[nH]2)CCN(C(=O)c2ccc(Cl)cc2)C3)cc1` [Compound C115, 7-(4-chlorobenzoyl)-2-{[(4-methoxyphenyl)methyl]amino}-5,6,7,8-tetrahydropyrido[3,4-d]pyrimidin-4(3H)-one] are 37.1 µM and 42.8 µM.
As for `COc1ccc(CNc2nc3c(c(=O)[nH]2)CCN(C(=O)c2ccc(Br)cc2)C3)cc1` [Compound C116, 7-(4-bromobenzoyl)-2-{[(4-methoxyphenyl)methyl]amino}-5,6,7,8-tetrahydropyrido[3,4-d]pyrimidin-4(3H)-one], in series [1] (setting [2]), the EC50 was determined as 21.6 µM. Further, the CC50 at 3 days in “in vitro” is 27.4 µM.
The like results for `COc1ccc(CNc2nc3c(c(=O)[nH]2)CCN(C(=O)c2ccc(I)cc2)C3)cc1` [Compound C117, 7-(4-iodobenzoyl)-2-{[(4-methoxyphenyl)methyl]amino}-5,6,7,8-tetrahydropyrido[3,4-d]pyrimidin-4(3H)-one] were, in that order, 9.61 µM and 43.5 µM.
Take `COc1ccc(CNc2nc3c(c(=O)[nH]2)CCN(C(=O)c2ccc(C(F)(F)F)cc2)C3)cc1` [Compound C118, 2-{[(4-methoxyphenyl)methyl]amino}-7-[4-(trifluoromethyl)benzoyl]-5,6,7,8-tetrahydropyrido[3,4-d]pyrimidin-4(3H)-one]: in series [1] (setting [2]), the EC50 amounted to 22 µM. The compound also yielded a CC50 at 3 days in “in vitro” of 39 µM.
For `COc1ccc(CNc2nc3c(c(=O)n2C2CCS(=O)(=O)CC2)CCN(C(=O)c2ccc(Cl)c(Cl)c2)C3)cc1` [Compound C119, 4-[7-(3,4-dichlorobenzoyl)-2-{[(4-methoxyphenyl)methyl]amino}-4-oxo-5,6,7,8-tetrahydropyrido[3,4-d]pyrimidin-3(4H)-yl]-1λ^6-thiane-1,1-dione], in series [1] (setting [2]), the EC50 amounted to 6.95 µM. This compound showed a CC50 at 3 days in the series “in vitro” of 33.5 µM.
On to `CC(C)Nc1nc2c(c(=O)n1C1CCS(=O)(=O)CC1)CCN(C(=O)c1ccc(Cl)c(Cl)c1)C2` [Compound C120, 4-[7-(3,4-dichlorobenzoyl)-4-oxo-2-[(propan-2-yl)amino]-5,6,7,8-tetrahydropyrido[3,4-d]pyrimidin-3(4H)-yl]-1λ^6-thiane-1,1-dione], for which, in series [1] (setting [2]), the EC50 worked out at 7.36 µM. This compound yielded a CC50 at 3 days in the series “in vitro” of over 50 µM.

Source of the values: patent US20230091047A1 (priority 2019, published 2023).
